Source: patent publication US20240317712A1, “[…] DERIVATIVES AS INHIBITORS OF […]-PEPTIDE CYCLOTRANSFERASE AND […]-PEPTIDE CYCLOTRANSFERASE LIKE PROTEIN” (Boehringer Ingelheim International GmbH, priority 2023, published 2024)

What was measured:
[1] = tested on: SIRPα signalling induced by A549 cells; assay: Assay B: SIRPα signalling assay using A549 cells; type: cell-based; details: Homo sapiens, 48 h compound incubation, Jurkat PathHunter SIRPaV1 reporter cells, read-out: Inhibition of SIRPα signalling induced by A549 cells: IC50
Method: (§1) Two cell types are independently used: the Raji cell line (lymphoblast-like human cell line derived from B lymphocytes from a Burkitt's lymphoma patient in 1963) and A549 cells (adenocarcinoma human alveolar basal epithelial cells).
(§2) Test compounds were dissolved in 100% DMSO and serially diluted into a white 384-well microtiter cell culture plate (PerkinElmer #60076780 in case of Raji assay; PDL-coated plates Greiner #781945 in case of A549 assay), 5000 Raji cells (ATCC #CC86) or 5000 A549 cells (ATCC #CCL-185) in Assay Complete Cell Plating reagent 30 (DiscoverX 93-0563R30B) were added per well. The assay plate was incubated for 48 h at 37° C., 95% humidity and 5% CO2. 15000 reporter cells (Jurkat PathHunter SIRPaV1, DiscoverX #93-1135C19) were added to each well, and the plate was incubated for 5 h at 37° C., 95% humidity and 5% CO2. Bioassay reagent 1 of the PathHunter Bioassay detection kit (DiscoverX 93-0001) was added to each well of the plate using a multichannel pipette followed by a 15 min incubation at room temperature. Afterwards bioassay reagent 2 was added followed by 60 min incubation at room temperature (incubation in the dark). The analysis of the data was performed using the luminescence signal generated by beta-galactosidase in the PathHunter reporter cell line. The luminescence measurement was done using a Pherastar Multi-Mode Reader. Dose-response curves & IC50 data were calculated with 4-parameter sigmoidal dose response formula.

QPCT = target: T1, QPCT (Homo sapiens, UniProt Q16769); assay: Assay A: biochemical QPCT activity assay (MALDI-TOF MS, CD47 peptide substrate); details: 0.5 nM enzyme, 20 μM CD47 peptide substrate; read-out: Inhibition of QPCT: IC50
T1 construct: purchased Origine (so in the source)
Method: (§3) QPCT or QPCTL dependent conversion of N-terminal glutamine to pyroglutamate of CD47 was monitored via MALDI-TOF MS. Test compounds were dissolved in 100% DMSO and serially diluted into clear 1,536-well microtiter plates. Enzymatic reactions were set up in assay buffer containing 20 mM Tris pH 7.5, 0.1 mM TCEP, 0.01% BSA, and 0.001% Tween20. […] The plates were incubated for 10 min in a humidified incubator at 24° C. Subsequently, 2.5 µL of CD47 peptide substrate surrogate (^19[…]^33) was added to each well (final concentration: 10 μM for QPCTL/20 μM for QPCT). The plates were mixed for 30 sec at 1,000 rpm and subsequently incubated for 40 min in a humidified incubator at 24° C. […] The plates were sealed with an adhesive foil, mixed for 30 s at 1,000 rpm and stored at room temperature until preparation of the MALDI target plates. MALDI target plates were prepared as described previously. […] QPCT or QPCTL activity was monitored by calculating the ratio between product and internal standard signals followed by normalization to high (100% activity) and low (0% activity) controls. Determination of compound potencies was obtained by fitting the dose-response data to a four-parameter logistical equation.

[2] = tested on: SIRPα signalling induced by Raji cells; assay: Assay B: SIRPα signalling assay using Raji cells; type: cell-based; details: Homo sapiens, 48 h compound incubation, Jurkat PathHunter SIRPaV1 reporter cells, read-out: Inhibition of SIRPα signalling induced by Raji cells: IC50
Method: as §1, §2

QPCTL = target: T2, QPCTL (Homo sapiens, UniProt Q9NXS2); assay: Assay A: biochemical QPCTL activity assay (MALDI-TOF MS, CD47 peptide substrate); details: 0.5 nM enzyme, 10 μM CD47 peptide substrate; read-out: Inhibition of QPCTL: IC50
T2 construct: made in house
Method: as §3

[3] = Assay C: Permeability in CACO-2 cells; type: in vitro ADME; details: human, pH 7.2; for efflux ratio: Caco-2, permeability B−A/permeability A−B; for Papp A→B: Caco-2, apical to basolateral
Method: Caco-2 cells (1-2×10^5 cells/1 cm^2 area) are seeded on filter inserts (Costar transwell polycarbonate or PET filters, 0.4 μm pore size) and cultured (DMEM) for 10 to 25 days. Compounds are dissolved in appropriate solvent (like DMSO, 1-20 mM stock solutions). […] The transport solution (TL) is applied to the apical or basolateral donor side for measuring A-B or B-A permeability (3 filter replicates), respectively. Samples are collected at the start and end of experiment from the donor and at various time intervals for up to 2 hours also from the receiver side for concentration measurement by HPLC-MS/MS or scintillation counting. Sampled receiver volumes are replaced with fresh receiver solution.
Efflux ratio (ER)=permeability B−A/permeability A−B

T2 sequence (Q9NXS2 whole entry): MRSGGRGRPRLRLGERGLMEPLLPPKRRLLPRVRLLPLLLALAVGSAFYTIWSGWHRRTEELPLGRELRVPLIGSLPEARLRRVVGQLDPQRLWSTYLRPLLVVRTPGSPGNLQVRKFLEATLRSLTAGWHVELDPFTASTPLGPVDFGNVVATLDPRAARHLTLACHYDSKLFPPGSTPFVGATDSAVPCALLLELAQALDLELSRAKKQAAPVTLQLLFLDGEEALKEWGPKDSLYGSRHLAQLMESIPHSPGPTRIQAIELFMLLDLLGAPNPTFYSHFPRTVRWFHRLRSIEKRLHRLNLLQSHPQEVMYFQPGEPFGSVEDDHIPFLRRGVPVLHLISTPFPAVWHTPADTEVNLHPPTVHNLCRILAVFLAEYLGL
T1 sequence (Q16769 29-361): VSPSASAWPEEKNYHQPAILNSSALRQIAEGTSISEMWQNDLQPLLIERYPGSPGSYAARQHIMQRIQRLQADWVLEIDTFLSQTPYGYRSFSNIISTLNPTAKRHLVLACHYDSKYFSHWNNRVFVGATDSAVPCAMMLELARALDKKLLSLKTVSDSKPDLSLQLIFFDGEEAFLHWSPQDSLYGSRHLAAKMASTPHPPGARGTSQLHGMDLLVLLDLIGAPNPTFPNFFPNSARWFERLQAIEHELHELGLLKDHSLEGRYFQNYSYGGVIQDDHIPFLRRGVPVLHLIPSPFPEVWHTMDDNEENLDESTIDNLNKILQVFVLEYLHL

Cn1cnnc1C1CCN(c2c(C#N)cc(F)cc2-c2cnc3nn(C(C)(C)C)c(Cl)c3c2)CC1 [Example 26]
IC50 [1]: 8 nM
IC50 (QPCT): 1 nM
IC50 [2]: 16 nM
IC50 (QPCTL): 1 nM
efflux ratio [3]: 3.9
Papp A→B [3]: 14 ×10⁻⁶ cm/s

Cn1cnnc1C1(F)CCN(c2c(-c3cnc4nn(C(C)(C)C)cc4c3)ccc(Cl)c2C#N)CC1 [Example 27]
IC50 [1]: 7 nM
IC50 (QPCT): 1 nM
IC50 [2]: 19 nM
IC50 (QPCTL): 1 nM
efflux ratio [3]: 19.1
Papp A→B [3]: 2.2 ×10⁻⁶ cm/s

Cn1cnnc1C1(F)CCN(c2c(-c3ccc(F)nc3)ccc(Cl)c2C#N)CC1 [Example 28]
IC50 [1]: 12 nM
IC50 (QPCT): 2 nM
IC50 [2]: 93 nM
IC50 (QPCTL): 2 nM
efflux ratio [3]: 1.7
Papp A→B [3]: 34 ×10⁻⁶ cm/s

Cn1cnnc1C1(F)CCN(c2c(-c3ccc(F)nc3)ccc(C(F)(F)F)c2C#N)CC1 [Example 29]
IC50 [1]: 19 nM
IC50 (QPCT): 2 nM
IC50 [2]: 78 nM
IC50 (QPCTL): 1 nM
efflux ratio [3]: 1.4
Papp A→B [3]: 53 ×10⁻⁶ cm/s

Cn1cnnc1C1(F)CCN(c2c(-c3cnc4nn(C(C)(C)C)cc4c3)ccc(C(F)(F)F)c2C#N)CC1 [Example 30]
IC50 [1]: 8 nM
IC50 (QPCT): 1 nM
IC50 [2]: 19 nM
IC50 (QPCTL): 1 nM
efflux ratio [3]: 22.9
Papp A→B [3]: 1.7 ×10⁻⁶ cm/s

Cn1cnnc1C1CCN(c2c(-c3ccc(F)nc3)ccc(C(F)(F)F)c2C#N)CC1 [Example 31]
IC50 [1]: 19 nM
IC50 (QPCT): 4 nM
IC50 [2]: 77 nM
IC50 (QPCTL): 1 nM
efflux ratio [3]: 3.5
Papp A→B [3]: 22 ×10⁻⁶ cm/s

Cn1cnnc1C1CCN(c2c(-c3cnc4nn(C(C)(C)C)cc4c3)ccc(C(F)(F)F)c2C#N)CC1 [Example 32]
IC50 [1]: 36 nM
IC50 (QPCT): 2 nM
IC50 [2]: 70 nM
IC50 (QPCTL): 2 nM
efflux ratio [3]: 146
Papp A→B [3]: 0.2 ×10⁻⁶ cm/s

COc1ccc(-c2cnc3nn(C(C)(C)C)cc3c2)c(N2CCC(F)(c3nncn3C)CC2)c1C#N [Example 33]
IC50 [1]: 11 nM
IC50 (QPCT): 1 nM
IC50 [2]: 20 nM
IC50 (QPCTL): 1 nM
efflux ratio [3]: 51.9
Papp A→B [3]: 0.8 ×10⁻⁶ cm/s

Cn1cnnc1C1(F)CCN(c2c(C#N)cc(C(F)(F)F)cc2-c2cnc3nc(C4(C)CC4)nn3c2)CC1 [Example 35]
IC50 [1]: 6 nM
IC50 (QPCT): 2 nM
IC50 [2]: 16 nM
IC50 (QPCTL): 1 nM
efflux ratio [3]: 17.1
Papp A→B [3]: 4.8 ×10⁻⁶ cm/s

Cn1cnnc1C1(F)CCN(c2c(C#N)cc(C(F)(F)F)cc2-c2cnc3nn(C(F)(F)F)cc3c2)CC1 [Example 36]
IC50 [1]: 9 nM
IC50 (QPCT): 1 nM
IC50 [2]: 8 nM
IC50 (QPCTL): 1 nM
efflux ratio [3]: 6.7
Papp A→B [3]: 5.7 ×10⁻⁶ cm/s
